# Test system: 379773-124-R-J2-PDC spheroid viability
# Test: Anticancer human tumor 379773-124-R-J2-PDC patient-derived endometrial carcinoma cell line growth inhibition [POLQ]
# Conditions: spheroids with HUVEC and MSC; for IC50: curve of first compound; for viability, T/C: stronger effect = lower value
# In short: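 Patient-derived tumour cells were co-cultured with HUVEC and mesenchymal stem cells as multicellular spheroids at 37 °C. They were treated with POLQ inhibitors (novobiocin, ART-558, RP6685) alone or combined with other agents. Top concentrations were at or near clinical Cmax (otherwise 10 microM; SN-38 at 1 microM), decreasing in half-log steps.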
# [1] = second compound 0.0316 µM, first compound 0.0316 µM
# [2] = second compound 0.0316 µM, first compound 0.1 µM
# [3] = second compound 0.0316 µM, first compound 0.316 µM
# [4] = second compound 0.0316 µM, first compound 1 µM
# [5] = second compound 0.0316 µM, first compound 3.16 µM
# [6] = second compound 0.0316 µM, first compound 10 µM
# [7] = second compound 0.1 µM, first compound 0.0316 µM
# [8] = second compound 0.1 µM, first compound 0.1 µM
# [9] = second compound 0.1 µM, first compound 0.316 µM
# [10] = second compound 0.1 µM, first compound 1 µM
# [11] = second compound 0.1 µM, first compound 3.16 µM
# [12] = second compound 0.1 µM, first compound 10 µM
# [13] = second compound 0.316 µM, first compound 0.0316 µM
# [14] = second compound 0.316 µM, first compound 0.1 µM
# [15] = second compound 0.316 µM, first compound 0.316 µM
# [16] = second compound 0.316 µM, first compound 1 µM
# [17] = second compound 0.316 µM, first compound 3.16 µM
# [18] = second compound 0.316 µM, first compound 10 µM
# [19] = second compound 1 µM, first compound 0.0316 µM
# [20] = second compound 1 µM, first compound 0.1 µM
# [21] = second compound 1 µM, first compound 0.316 µM
# [22] = second compound 1 µM, first compound 1 µM
# [23] = second compound 1 µM, first compound 3.16 µM
# [24] = second compound 1 µM, first compound 10 µM
# [25] = second compound 3.16 µM, first compound 0.0316 µM
# [26] = second compound 3.16 µM, first compound 0.1 µM
# [27] = second compound 3.16 µM, first compound 0.316 µM
# [28] = second compound 3.16 µM, first compound 1 µM
# [29] = second compound 3.16 µM, first compound 3.16 µM
# [30] = second compound 3.16 µM, first compound 10 µM
# [31] = second compound 10 µM, first compound 0.0316 µM
# [32] = second compound 10 µM, first compound 0.1 µM
# [33] = second compound 10 µM, first compound 0.316 µM
# [34] = second compound 10 µM, first compound 1 µM
# [35] = second compound 10 µM, first compound 3.16 µM
# [36] = second compound 10 µM, first compound 10 µM
# 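Note: spheroids exposed to drugs for seven days before readout.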
# 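Throughout, for viability, T/C: percent viability relative to DMSO vehicle control taken as 100%.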
compound,measurement,setting,value
CC1COCCN1c1cc(-c2ccnn2C)c2ccnc(-c3ccn[nH]3)c2n1 (stereo unspecified) + Cc1cccc(N(C)C(=O)C2C(O)CCN2c2nc(C)cc(C(F)(F)F)c2C#N)c1,IC50,second compound 0.0316 µM,99.4 nM
same,IC50,second compound 0.1 µM,102 nM
same,IC50,second compound 0.316 µM,84.7 nM
same,IC50,second compound 1 µM,74.2 nM
same,IC50,second compound 3.16 µM,102 nM
same,IC50,second compound 10 µM,96.3 nM
same,"viability, T/C",[1],81.4%
same,"viability, T/C",[2],49.9%
same,"viability, T/C",[3],12.2%
same,"viability, T/C",[4],10.4%
same,"viability, T/C",[5],9.61%
same,"viability, T/C",[6],5.75%
same,"viability, T/C",[7],83.7%
same,"viability, T/C",[8],50.7%
same,"viability, T/C",[9],16.9%
same,"viability, T/C",[10],10.2%
same,"viability, T/C",[11],8.42%
same,"viability, T/C",[12],6.47%
same,"viability, T/C",[13],79.4%
same,"viability, T/C",[14],45.1%
same,"viability, T/C",[15],10.8%
same,"viability, T/C",[16],7.57%
same,"viability, T/C",[17],9.57%
same,"viability, T/C",[18],7.53%
same,"viability, T/C",[19],76.5%
same,"viability, T/C",[20],40.7%
same,"viability, T/C",[21],13.5%
same,"viability, T/C",[22],8.7%
same,"viability, T/C",[23],8.89%
same,"viability, T/C",[24],6.67%
same,"viability, T/C",[25],76.9%
same,"viability, T/C",[26],50.7%
same,"viability, T/C",[27],14%
same,"viability, T/C",[28],9.29%
same,"viability, T/C",[29],8.28%
same,"viability, T/C",[30],6.05%
same,"viability, T/C",[31],70.5%
same,"viability, T/C",[32],49.3%
same,"viability, T/C",[33],14%
same,"viability, T/C",[34],9.57%
same,"viability, T/C",[35],9.04%
same,"viability, T/C",[36],5.97%
COc1cccc2c1C(=O)c1c(O)c3c(c(O)c1C2=O)CC(O)(C(=O)CO)CC3OC1CC(N)C(O)C(C)O1 (stereo unspecified) + COC1C(OC(N)=O)C(O)C(Oc2ccc3c(O)c(NC(=O)c4ccc(O)c(CC=C(C)C)c4)c(=O)oc3c2C)OC1(C)C,IC50,second compound 0.0316 µM,56.8 nM
same,IC50,second compound 0.1 µM,64.4 nM
same,IC50,second compound 0.316 µM,66 nM
same,IC50,second compound 1 µM,61.8 nM
same,IC50,second compound 3.16 µM,55.6 nM
same,IC50,second compound 10 µM,58.5 nM
same,"viability, T/C",[1],77.5%
same,"viability, T/C",[2],23.3%
same,"viability, T/C",[3],6.61%
same,"viability, T/C",[4],6.45%
same,"viability, T/C",[5],0.84%
same,"viability, T/C",[6],0.73%
same,"viability, T/C",[7],85.7%
same,"viability, T/C",[8],27.9%
same,"viability, T/C",[9],6.63%
same,"viability, T/C",[10],6.52%
same,"viability, T/C",[11],1%
same,"viability, T/C",[12],0.1%
same,"viability, T/C",[13],83.4%
same,"viability, T/C",[14],31.3%
same,"viability, T/C",[15],8.56%
same,"viability, T/C",[16],7.02%
same,"viability, T/C",[17],1.52%
same,"viability, T/C",[18],1.06%
same,"viability, T/C",[19],82.8%
same,"viability, T/C",[20],26.2%
same,"viability, T/C",[21],8.01%
same,"viability, T/C",[22],5.55%
same,"viability, T/C",[23],1.26%
same,"viability, T/C",[24],0.1%
same,"viability, T/C",[25],75.7%
same,"viability, T/C",[26],23.2%
same,"viability, T/C",[27],6.39%
same,"viability, T/C",[28],6.03%
same,"viability, T/C",[29],1.65%
same,"viability, T/C",[30],0.73%
same,"viability, T/C",[31],84%
same,"viability, T/C",[32],19.4%
same,"viability, T/C",[33],7.68%
same,"viability, T/C",[34],5.68%
same,"viability, T/C",[35],0.98%
same,"viability, T/C",[36],0.19%
COc1ccc([C@@H](O)c2cc(-c3ncnc4cc(N5CCOCC5)ccc34)c(F)cc2Cl)nn1 + Nc1ccc(C#CCN(C(=O)Cc2ncc(C(F)(F)F)cc2C(F)(F)F)c2ccc(F)cc2)nn1,IC50,second compound 0.0316 µM,9880 nM
same,IC50,second compound 0.1 µM,7660 nM
same,IC50,second compound 0.316 µM,7780 nM
same,IC50,second compound 1 µM,9090 nM
same,IC50,second compound 3.16 µM,7080 nM
same,IC50,second compound 10 µM,8700 nM
same,"viability, T/C",[1],98.9%
same,"viability, T/C",[2],104%
same,"viability, T/C",[3],101%
same,"viability, T/C",[4],83.8%
same,"viability, T/C",[5],89.1%
same,"viability, T/C",[6],48.4%
same,"viability, T/C",[7],90.3%
same,"viability, T/C",[8],104%
same,"viability, T/C",[9],89.6%
same,"viability, T/C",[10],95.2%
same,"viability, T/C",[11],77%
same,"viability, T/C",[12],41.6%
same,"viability, T/C",[13],98.4%
same,"viability, T/C",[14],96.2%
same,"viability, T/C",[15],99.3%
same,"viability, T/C",[16],91.4%
same,"viability, T/C",[17],105%
same,"viability, T/C",[18],36.7%
same,"viability, T/C",[19],97.4%
same,"viability, T/C",[20],83.9%
same,"viability, T/C",[21],85.6%
same,"viability, T/C",[22],99.9%
same,"viability, T/C",[23],79.5%
same,"viability, T/C",[24],47.4%
same,"viability, T/C",[25],91.8%
same,"viability, T/C",[26],92.1%
same,"viability, T/C",[27],82.6%
same,"viability, T/C",[28],90.3%
same,"viability, T/C",[29],76.4%
same,"viability, T/C",[30],38.8%
same,"viability, T/C",[31],90.8%
same,"viability, T/C",[32],87%
same,"viability, T/C",[33],87.8%
same,"viability, T/C",[34],85.9%
same,"viability, T/C",[35],105%
same,"viability, T/C",[36],44.2%
